The results in this text go back to patent US11459330B2, “Substituted bicyclic heterocyclic compounds as PRMT5 inhibitors” (LUPIN LIMITED, priority 2017, dated 2022).

Assay [1] has as its system PANC-1 cells. Put plainly: Anti-cancer assay (Panc-1), cell viability CellTiterGlo. It counts as cell-based. The conditions noted are these: Homo sapiens, PANC-1, 168 h, 7 days, activity range, lower bound in pM, upper bound in nM. How it is done: Anticancer Activity Assay
Z-138 cells were seeded at a density of 2000-3000 cells per well in culture media (IMDM+10% FBS). PANC-1 (ATCC, CRL-1469™) and MIA PaCa-2 (ATCC, CRL-1420™) cells were seeded at a density of 200-300 cells per well in culture media (DMEM+10% FBS). Cells were seeded in opaque, flat bottomed tissue culture grade 96-well plates and Z-138 cells (suspension) were seeded and treated on the same day with various concentrations of test compounds. PANC-1 and MIA PaCa-2 cells, being adherent, were kept for overnight settlement at standard cell culture conditions (37° C., 5% CO2). On the following day, cells were treated with various concentrations of test compounds. Cells were treated with test compounds for a period of 96 h, 7 days and 10 days, for Z-138 cells, PANC-1 cells and MIA PaCa-2 cells, respectively. Cell viability was assessed using CellTiterGlo™ (Promega, USA) as per manufacturer's instructions. Relative Light Units (RLU) were read in Synergy™ 2 reader (Biotek, USA). The assay measures cellular ATP as an indicator of cell viability. RLU is proportional to the number of viable cells in the respective well.
% inhibition of cell viability was calculated relative to the vehicle control samples containing media with 0.1% DMSO alone as per the formula below. (Avg. of Untreated Control−Avg. of Test)×100 Avg. of Untreated Control
The IC50 values of individual compounds were calculated with Non Linear Regression Analysis using Graph Pad Prism (Graph Pad software, Inc, USA).
Anti-Cancer Assay (Panc-1)
Background: Cellular ATP, detected with luciferase, serves as a proxy for viable cell number.

Assay [2] deals with PRMT5:MEP50 (Homo sapiens, UniProt O14744). Description: PRMT5 biochemical HTRF assay (Biochemical Assay Protocol 1 / 2). The conditions noted are these: biotinylated H4R3 substrate, 1 μM SAM, protocol 1 or 2 not given, activity range 300 pM to 950 pM, read-out: IC50 (PRMT5 inhibition), activity range. Here is the method:
Biochemical Assay Protocol 1
(§1) Inhibitory effect of compounds on PRMT5 was assessed using HTRF detection technology in biochemical assay. Biotinylated H4R3 (residues 1-21) was used as a substrate. Compounds were pre-incubated with 15-25 ng PRMT5:MEP50 per well of a 384-well plate for 30 min at room temperature in the assay buffer containing 20 mM Bicine, pH 7.6, 25 mM NaCl, 2 mM DTT, 0.01% Chicken albumin and 0.01% Tween-20. Reaction was initiated by adding 1 μM of SAM and 50 nM biotinylated H4R3. Total assay volume was 15 μL. Reaction was continued for 120 min at room temperature. Then detection solution containing Streptavidin-Eu cryptate, anti-rabbit IgG-XL-665, Histone H4R3 Dimethyl Symmetric (H4R3me2s) Polyclonal Antibody, all prepared in HTRF detection buffer was added and further incubated for 30 min at room temperature. HTRF signal was recorded in PHERAStar microplate reader. Ratio of signal obtained at 665 nm and 620 nm was used to compute the percent inhibition of compound as follows % Inhibition=100−((Test Ratio−Negative control Ratio)/(Positive control Ratio−Negative control Ratio)*100) where Positive control=PRMT5+SAM+H4R3 Negative control=PRMT5+H4R3 Biochemical Assay Protocol 2
as §1, with “2.5” for “15-25”, “4 h” for “120 min”, “control=PRMT5+H4R3” for “control=PRMT5+H4R3 Biochemical Assay Protocol 2”
Background: In TR-FRET formats the signal depends on donor and acceptor labels being close together.

Assay [3] deals with Z-138 xenograft. Put plainly: In vivo efficacy, Z-138 xenograft mouse model. Details: species or system female NOD.CB17-Prkdc<scid>/J mice. The note with it: mice, oral twice a day; for % of tumor growth inhibition: 1 mg/kg dose, after 38 days. How it is done: In Vivo Efficacy Experiments Tumor xenograft for mantle cell lymphoma was established by injection of cells into the right flank of female NOD.CB17-Prkdc/J mice with an age between 7-11 weeks purchased from The Jackson Laboratory, USA. All animal study proposals were reviewed and approved by the Institutional Animal Ethics Committee (IAEC) prior to initiation of experimentation. Z-138 Xenograft For Z-138 xenograft mouse model, Z-138 cells (ATCC® CRL-3001™) were grown in IMDM medium supplemented with 10% FBS. Cells were incubated under standard conditions at 37° C. and 5% CO2. For generating tumors, Z-138 cells in IMDM medium were mixed with Matrigel (Corning® Matrigel® Basement Membrane Matrix) in a ratio of 1:1. 10×10^6 cells) in a volume of 200 μL were injected subcutaneously in each mouse to establish tumors. Mice were randomized into treatment groups of 8-10 mice, once tumors reached an average volume between 100 to 120 mm^3. Treatment was initiated on day of randomization and continued until end of the study. The Vehicle and test compound treatment groups were administered respective treatments orally, using gavage tubing, at an application volume of 10 mL/kg per mouse twice a day. Mice were housed in individually ventilated cages (IVC) at room temperature of 22+3° C., humidity 50+20% and 12/12 h light/dark cycle. All the experimental activities were carried-out inside the biosafety cabinets to ensure sterility.
Tumor size was measured with Digimatic Vernier caliper (Mitutoyo, Japan) when the tumors became palpable. Tumor volume (T. V.) is calculated by using the formula: Tumor volume (mm3)=(L×W2)/2 Where, L: Length of tumor, W: Width of tumor in millimeter Percent tumor growth inhibition (% TGI) is calculated using the formula: % TGI=[1−(Tf−Ti)/(Cf−Ci)]×100 Where, Tf and Ti, are the final and initial tumor volumes (test compound), and Cf and Ci are the final and initial mean tumor volumes (vehicle group), respectively. Percent tumor regression is calculated as: % TR:(Ti−Tf)/(Ti)×100 Where, Tf and Ti, are the final and initial tumor volumes, respectively.

PRMT5:MEP50, sequence (O14744 whole entry): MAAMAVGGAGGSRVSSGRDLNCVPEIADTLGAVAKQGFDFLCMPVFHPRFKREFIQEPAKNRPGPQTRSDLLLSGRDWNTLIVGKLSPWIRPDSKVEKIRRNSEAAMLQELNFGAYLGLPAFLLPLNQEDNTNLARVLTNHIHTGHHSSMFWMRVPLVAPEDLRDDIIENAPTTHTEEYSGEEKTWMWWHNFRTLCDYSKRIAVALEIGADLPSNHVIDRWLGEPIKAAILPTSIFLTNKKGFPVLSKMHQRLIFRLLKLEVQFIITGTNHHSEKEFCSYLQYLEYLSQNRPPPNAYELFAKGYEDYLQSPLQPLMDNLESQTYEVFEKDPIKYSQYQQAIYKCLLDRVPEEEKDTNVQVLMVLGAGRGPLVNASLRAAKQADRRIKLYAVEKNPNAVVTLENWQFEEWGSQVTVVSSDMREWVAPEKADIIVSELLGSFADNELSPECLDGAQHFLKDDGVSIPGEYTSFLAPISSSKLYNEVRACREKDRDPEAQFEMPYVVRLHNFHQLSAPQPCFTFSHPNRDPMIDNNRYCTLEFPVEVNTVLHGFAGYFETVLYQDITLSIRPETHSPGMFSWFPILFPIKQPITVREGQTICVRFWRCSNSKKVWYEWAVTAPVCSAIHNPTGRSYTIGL
PRMT5:MEP50, sequence (Q9BQA1 whole entry partner): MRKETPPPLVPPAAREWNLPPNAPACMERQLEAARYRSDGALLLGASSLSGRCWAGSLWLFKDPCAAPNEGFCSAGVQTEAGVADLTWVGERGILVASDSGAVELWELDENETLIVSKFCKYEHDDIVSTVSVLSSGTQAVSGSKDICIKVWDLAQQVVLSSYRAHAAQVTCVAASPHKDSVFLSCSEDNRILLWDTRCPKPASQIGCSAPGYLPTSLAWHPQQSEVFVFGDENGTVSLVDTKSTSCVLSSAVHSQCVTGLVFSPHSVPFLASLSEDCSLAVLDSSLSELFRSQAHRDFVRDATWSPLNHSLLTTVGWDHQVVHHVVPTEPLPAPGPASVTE

Turning to `Nc1nc2cc(CC[C@@]34C[C@@H]3[C@@H](n3ccc5c(N)ncnc53)[C@H](O)[C@@H]4O)cc(F)c2cc1Cl` [Compound-48, (1R,2R,3S,4R,5S)-1-(2-(2-Amino-3-chloro-5-fluoroquinolin-7-yl)ethyl)-4-(4-amino-7H-pyrrolo[2,3-d]pyrimidin-7-yl)bicyclo[3.1.0]hexane-2,3-diol], the IC50 in assay [1] was 300 to 20000 pM. Moreover, the IC50 in assay [2] lay within 0.3 to 0.95 nM. In assay [3] (5 mg/kg dose), this molecule came in with a tumor growth inhibition of 100% and a tumor regression of 63%.

As to `Cc1ncnc2c1ccn2[C@@H]1C=C(CCc2cc(F)c3cc(Cl)c(N)nc3c2)[C@@H](O)[C@H]1O` [Compound-13, (1S,2R,5R)-3-(2-(2-amino-3-chloro-5-fluoroquinolin-7-yl)ethyl)-5-(4-methyl-7H-pyrrolo[2,3-d]pyrimidin-7-yl)cyclopent-3-ene-1,2-diol], the results for the IC50 in assay [1] and in assay [2] were 300 to 20000 pM and 0.3 to 0.95 nM, respectively. The “% of tumor growth inhibition” value in assay [3] is 100%.

As for `Nc1nc2cc(CCC3=C[C@@H](n4ccc5c(N)ncnc54)[C@H](O)[C@@H]3O)cc(F)c2cc1Cl` [Compound-24, (1S,2R,5R)-3-(2-(2-amino-3-chloro-5-fluoroquinolin-7-yl)ethyl)-5-(4-amino-7H-pyrrolo[2,3-d]pyrimidin-7-yl)cyclopent-3-ene-1,2-diol], the IC50 in assay [1] was in the range of 300 to 20000 pM; in assay [2], 0.3 to 0.95 nM. Also, the “% of tumor growth inhibition” value in assay [3] came to 100%.

Take `CC(Cc1cc(F)c2cc(Cl)c(N)nc2c1)C1=C[C@@H](n2ccc3c(N)ncnc32)[C@H](O)[C@@H]1O` (single isomer, unassigned) [Compound-33b]: the IC50 in assay [1] lay in the range of 300 to 20000 pM; in assay [2], 0.3 to 0.95 nM. For the same molecule, in assay [3], the “% of tumor growth inhibition” value was found to be 100%.

As a reminder, the IC50 is the point on the concentration scale where inhibition reaches its midpoint.
